Test results reported in EP3892734B1, “SCREENING METHODS AND THERAPEUTIC APPLICATIONS BASED ON BACTERIAL MOTILITY INHIBITION” (Ludwig-Maximilians-Universität München, priority 2020, dated 2021).
Converted amounts (≈) assume the structure as drawn. “And” between values parts separate entries of the source, which are not always exact repeats. Equal entries are not always repeated. “Also recorded” adds a separate entry of the source. Where two headings read alike, the source gives them in different places.

Columns and labels:
H. pylori N6 [1] = assay: MIC/MBC determination in broth culture; type: cell-based, Helicobacter pylori; details: for classical antibacterial activity (growth / metabolic inhibition) against H. pylori: result in words
Experimental: In order to distinguish compounds having anti-flagellar activity from compounds having classical antibiotic effects (i.e., bacteriostatic and/or bactericidal effects), the test compounds were additionally subjected to MIC/MBC testing. Helicobacter pylori were grown in liquid culture by harvesting bacteria from overnight-grown plates into brain-heart infusion medium (BHI, Oxoid) with 3% yeast extract and 5% horse serum, added to an initial inoculum of OD600 = 0.05. 10 ml of this bacterial suspension were incubated as a preculture in a 50 ml Falcon tube with lid ajar inside of an air-tight incubation jar and a microaerobic atmosphere generated by Merck Anaerocult C gas generating packs at 37°C and shaking with 175 rpm overnight. On the following day, prior to the beginning of the experiment, the OD600 of the liquid culture was routinely below 1, in mid-exponential growth phase.
Next, 200 µl of the bacterial suspension were added per well of a 24-well-plate (Greiner Cellstar #662160) diluted to an initial OD600 of 0.07. Compounds (in DMSO) were added to the sample wells in duplicates in a serial dilution of starting at an upper limit of 256 µg/ml. Pure DMSO was added to all wells for a concentration of 2% DMSO per well. The multiwell plate (with lid) was incubated inside of an incubation jar and a microaerobic atmosphere generated by Merck Anaerocult C sachets at 37°C and shaking with 175 rpm for 24 h. For measurement, the duplicates were pooled after visual inspection, diluted 1:3 in medium and measured in plastic cuvettes as an OD at 600 nm. The detection limit of growth was defined as an OD600 of 0.05. […] This MIC determination method can also be downscaled, further automated and measured in 96- or 384-well plates in a micro-well plate incubator equipped with a gas chamber for microaerobic bacterial incubation.
For evaluation of the "minimum bactericidal concentration" (MBC), bacteria from the MIC experiment were streaked and plated at different serial dilutions on blood agar, including the lowest compound concentration where bacterial growth was still measurable by OD600 (OD600 ≥ 0.05), and three compound concentration levels above (if possible). The blood agar plates were incubated at 37°C in an […], either inside an incubation jar (Oxoid) with an Anaerocult C gas pack (Merck), or in an anaerobic cabinet aerated with a microaerobic gas mix as outlined above (Scholzen).
For evaluation of the MBC, bacteria from the MIC experiment were plated as streaks or in appropriate dilutions on Columbia blood agar plates, using inoculation loops. The plates were incubated at 37°C overnight to detect growth.

H. pylori N6 [2] = assay: vitality / metabolic (respiratory inhibition) counter-screen; type: cell-based, Helicobacter pylori; details: > 100% indicates no inhibition
[3] = system: H. pylori flaA-luciferase reporter strain N6; assay: microbe, parasite or virus in culture; type: cell-based, Helicobacter pylori
Text: The H. pylori flaA promoter was fused with a luciferase operon (luxAB) from Vibrio harveyi in a H. pylori suicide plasmid (Niehus, Ye, Suerbaum, & Josenhans, 2002). The flaA reporter fusion was recombined into the H. pylori chromosome and the resulting strain tested to be strongly luminescence positive. The reporter strain (N6 flaA-lux4B) activated luminescence to about 40,000 to 60,000 counts per second using luciferase substrate at an OD600 of 0.8 (mid-log phase) in liquid culture. The negative control value of a non-reporter strain or reporter strain without luminescence substrate was close to zero. […] The Z-Factor (Zhang et al., 1999) determined for the assay with various bacterial inhibitors measured in quadruplicates or triplicates was routinely between 0.6 and 0.7, with a confidence interval of 95%.
H. pylori luminescence reporter strains were passaged on blood agar plates less than 22 hours prior to the start of the experiment. The passage number for these assays was not higher than five to preserve the strain's properties and genetic stability. Luciferase reaction buffer was prepared as follows: 50 mM disodium phosphate (Na2HPO4) and 2% BSA were dissolved in HPLC water, filter sterilized, aliquoted and frozen at - 20°C.
Bacteria were harvested in brain-heart infusion medium (BHI, 3% yeast extract with 5% horse serum added) and adjusted to an OD600 of 0.8 at room temperature. 50 µl of the bacterial suspension were added per well of a 96 well plate (non-binding, Greiner Bio-One 655901). 2 µl of each of the test compounds (provided as a 10 mM DMSO solution) were added to the sample wells. The same amount of pure, diluted DMSO was added to the control wells for a concentration of a maximum of 4% DMSO per well, since higher concentrations will interfere with metabolic functions of H. pylori and cause false negative results. The microwell plate was incubated inside a sterile sealed PM Gas Bag (BIOLOG #3032) together with a CampyGen Compact pack (Oxoid) to generate microaerobic conditions at 37°C and with shaking at 175 rpm for 4 h.
Shortly before taking the measurement, the luciferase substrate was prepared by diluting the luminescence substrate decanal (10% stock, Sigma Aldrich) at a 1 :2,000 dilution in luciferase reaction buffer. 60 µl of the substrate were added per well of a white 96 microwell plate (Thermo Scientific #236105) without the lid.
For the final luciferase measurement, 10 µl of bacterial solution were transferred with the epMotion 96 (Eppendorf) simultaneously to the wells containing the luciferase substrate and incubated on a microwell plate shaker for 10 s to lyse the bacteria. The measurements were recorded with a Perkin Elmer Victor 3/WNallac 1420 plate reader (luminometry, measurement time: 0.5 sec) and integrated to counts per sec. For the background measurement, 10 µl sterile medium containing 4% DMSO was added to the wells. For each measurement, at least four luciferase reporter positive control wells (without inhibitory compound) and four negative control wells (background without bacteria) were run on the same day and under the same assay conditions in parallel.

[4] = minimal toxic dose (MTD) testing in mice; type: in vivo; details: oral, up to 60 mg/kg/day, listed as BL2
Experimental: The active compounds BL1 and BL2, which were chosen to be tested in a preclinical model, were initially tested for toxicity in the mouse model by […] (MTD) testing. The MTD testing (MTD Tox56000 protocol, Eurofins Panlabs) was performed according to international standards, as will be briefly outlined in the following: Three mice were dosed with the compounds at each intended dose. BL1 active compound was prepared in a suitable stock concentration in 5% DMSO, or 5% DMSO, 10% Solutol, 85% PBS (for the 40 and 60 mg/kg/day), and dosed at 10, 30, 40, or 60 mg/kg/day by intraperitoneal injection (125 µl for each dose). BL2 active compound was dosed orally, at 10 mg/kg/day, 30 mg/kg/day, or 60 mg/kg/day, diluted in 5% DMSO, 2.5% carboxy-methyl-cellulose (CMC), in PBS, also at 125 µl per dose per animal. The dosing in each case started with the lowest dose in the three animals, followed by observation for up to 72 h. Subsequently, the next higher dose was administered to a different set of three mice, etc.. Both compounds to be used subsequently for the in vivo therapeutic administration were verified to be non-toxic to mice below an administered dose of 40 mg/kg per day.

What does the source list for `Cn1c(CSC(=N)N)c(Cl)c(=O)n1-c1ccccc1` [Active 2]?
MIC/MBC (H. pylori N6 [1]; H. pylori): > 256 mg/L; MIC (H. pylori N6 [1]; Helicobacter pylori, N6): > 256 mg/L; classical antibacterial activity (growth / metabolic inhibition) against H. pylori (H. pylori N6 [1]): did not inhibit growth or metabolic activity of H. pylori; classical antibacterial activity (growth / metabolic inhibition) against H. pylori (H. pylori N6 [1]; listed as BL2): not active against H. pylori in a classical antibacterial (antibiotic) manner; Metabolic assay (% of control) (H. pylori N6 [2]): 102,2 % of control; IC50 ([3]; H. pylori flaA-luciferase reporter strain N6, Table 6): 2.75 µg/mL (≈ 9.27 µM); Luciferase assay (% of control) ([3]; H. pylori screen): 2,6 % of control; IC50 ([3]; Helicobacter pylori, H. pylori flaA-luciferase reporter strain N6, Table 6): < 4.5 µg/mL; IC50 ([3]; Helicobacter pylori, read-out: IC50 (luciferase assay), luciferase flagellar reporter assay, Table 3): 2.74 µg/mL and 8 µM; inhibitory activity in luciferase reporter assay ([3]; result in words): strong inhibitor in the primary anti-flagellar reporter screen; toxicity (MTD testing) [4]: did not show any toxicity; also recorded: not toxic
